Results as given in patent US10259810B2, “N-sulfonylated pyrazolo[3,4-b]pyridin-6-carboxamides and method of use” (AbbVie S.à.r.l., priority 2015, dated 2019).
Read-outs that look alike come from different tables or passages of the source.

Key:
Assay type in all cases: cell-based
ΔF508-CFTR [1] = target: T1, ΔF508-CFTR (Homo sapiens, UniProt P13569, DEL508-508); test: CFTR cell surface levels using HRP-tagged ΔF508-CFTR expressing CFBE cells, in the presence of a co-corrector; settings: HRP-tagged ΔF508-CFTR CFBE cells, in the presence of 3 μM co-corrector; for EC50: read-out: EC50
T1 construct: host or cells: CFBE41o-, doxycycline-inducible
T1 sequence (P13569 with tags, fused parts or gaps DEL508-508): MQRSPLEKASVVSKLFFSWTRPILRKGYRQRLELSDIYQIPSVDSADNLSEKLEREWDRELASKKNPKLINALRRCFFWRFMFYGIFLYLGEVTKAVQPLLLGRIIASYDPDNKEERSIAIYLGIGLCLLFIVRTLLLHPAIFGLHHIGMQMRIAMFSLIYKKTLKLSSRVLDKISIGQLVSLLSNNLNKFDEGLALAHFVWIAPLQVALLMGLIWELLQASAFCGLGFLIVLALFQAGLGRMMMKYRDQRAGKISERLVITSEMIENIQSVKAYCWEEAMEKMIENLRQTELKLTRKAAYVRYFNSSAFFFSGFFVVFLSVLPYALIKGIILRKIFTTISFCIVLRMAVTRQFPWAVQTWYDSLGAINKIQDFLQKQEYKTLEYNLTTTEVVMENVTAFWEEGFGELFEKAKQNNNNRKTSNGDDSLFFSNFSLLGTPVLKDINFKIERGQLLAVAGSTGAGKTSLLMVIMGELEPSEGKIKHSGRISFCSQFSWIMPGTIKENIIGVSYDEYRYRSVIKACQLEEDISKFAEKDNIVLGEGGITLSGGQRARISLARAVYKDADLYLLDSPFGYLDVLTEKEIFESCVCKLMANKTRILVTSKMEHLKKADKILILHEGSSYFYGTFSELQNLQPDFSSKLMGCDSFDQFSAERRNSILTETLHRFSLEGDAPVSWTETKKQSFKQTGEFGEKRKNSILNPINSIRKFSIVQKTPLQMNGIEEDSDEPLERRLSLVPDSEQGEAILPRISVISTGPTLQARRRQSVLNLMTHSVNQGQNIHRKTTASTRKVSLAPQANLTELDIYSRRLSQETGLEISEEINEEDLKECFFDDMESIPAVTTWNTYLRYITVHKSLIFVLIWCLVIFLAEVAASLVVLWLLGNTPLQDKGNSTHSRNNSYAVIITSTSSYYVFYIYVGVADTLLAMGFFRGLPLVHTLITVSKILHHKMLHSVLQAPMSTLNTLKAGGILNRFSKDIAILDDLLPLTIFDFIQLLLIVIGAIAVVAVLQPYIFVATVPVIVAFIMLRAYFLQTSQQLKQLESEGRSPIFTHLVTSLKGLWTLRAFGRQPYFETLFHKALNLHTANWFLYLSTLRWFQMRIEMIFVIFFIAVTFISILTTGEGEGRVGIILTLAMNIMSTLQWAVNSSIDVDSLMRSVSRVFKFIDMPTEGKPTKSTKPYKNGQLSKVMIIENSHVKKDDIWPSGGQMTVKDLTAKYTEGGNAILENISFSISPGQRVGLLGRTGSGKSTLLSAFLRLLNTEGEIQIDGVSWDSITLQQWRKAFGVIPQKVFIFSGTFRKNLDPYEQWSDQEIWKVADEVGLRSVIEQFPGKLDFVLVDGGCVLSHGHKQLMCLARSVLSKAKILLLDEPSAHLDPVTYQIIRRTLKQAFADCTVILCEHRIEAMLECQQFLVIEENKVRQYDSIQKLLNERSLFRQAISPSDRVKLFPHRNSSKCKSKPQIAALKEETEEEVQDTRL
In short: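 Chemiluminescent read-out of surface HRP (15 min, dark) after PBS washes. Activity is normalized as 100×(sample−DMSO)/(3 μM co-corrector alone−DMSO).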

ΔF508-CFTR [2] = target: T1, ΔF508-CFTR; test: CFTR cell surface levels using HRP-tagged ΔF508-CFTR expressing CFBE cells, intrinsic corrector capacity; parameters: % Activation: concentration or dose not given beside the values; settings: HRP-tagged ΔF508-CFTR expressing CFBE41o- cells, compound alone (intrinsic corrector capacity), 20 hours at 33° C.; for EC50: read-out: EC50
In short: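 Surface ΔF508-CFTR was measured as HRP chemiluminescence from an extracellular-loop-4 tag, expressed as percent activity between DMSO and a […] corrector control.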

CFTR ΔF508 = target: T2, CFTR ΔF508 (Homo sapiens, UniProt P13569, DEL508-508); test: Chronic TECC assay, primary bronchial epithelial cells of CF patients homozygous for CFTR ΔF508 (corrector, co-corrector and potentiator); settings: for % Activity at 1 μM (Ieq*) / % Activity at 1 μM (AUC**): test compound at 1 μM; for % Activity at 3 μM (AUC**): test compound at 3 μM
T2 construct: bronchial epithelial cells isolated from CF patients homozygous for the CFTR ΔF508 mutation; McGill University; Asterand; University of North Carolina hAEC-CF; host or cells: primary human bronchial epithelial cells from CF patients homozygous for ΔF508, differentiated at air-liquid interface
T2 sequence (P13569 with tags, fused parts or gaps DEL508-508): as above
Procedure: Primary Bronchial Epithelial Cells Protocol
The TECC (Tranepithelial Clamp Circuit, EP-design) assay measures the functionality of the cystic fibrosis Transmembrane Conductance regulator (CFTR) by measuring the short circuit current (Isc) generated over the basolateral and apical membrane of lung epithelial cells. In TECC the transepithelial potential PD and transepithelial resistance (Rt) are measured in an open circuit and transformed to Ieq using Ohm's law. 24 Wells can be measured simultaneously allowing a higher throughput compared to Ussing chambers.
For this purpose, bronchial epithelial cells isolated from CF patients homozygous for the CFTR ΔF508 mutation (hAEC-CF, Epithelix, Geneva, Switzerland; McGill University, Montreal, Qc; Asterand, Detroit, Mich.; University of North Carolina, Chapel Hill, N.C.) are plated on type IV collagen-coated Transwell® supports (Costar).
For electrophysiological recording of the “chronic” experiments, the human airway epithelia are mounted in the TECC heating plate for electrophysiological measurement and kept at 37° C. The epithelia are bathed in a NaCl-Ringer solution (120 mM NaCl, 25 mM NaHCO3, 1.2 mM CaCl2, 1.2 mM MgCl2, 0.8 mM KH2PO4, 0.8 mM K2HPO4, pH 7.4, 5 mM glucose) on both the basolateral and apical sides. Test compounds (corrector, co-corrector, 4-[(2R,4R)-4-({[1-(2,2-difluoro-1,3-benzodioxol-5-yl)cyclopropyl]carbonyl}amino)-7-(difluoromethoxy)-3,4-dihydro-2H-chromen-2-yl]benzoic acid, and potentiator, N-(3-carbamoyl-5,5,7,7-tetramethyl-4,7-dihydro-5H-thieno[2,3-c]pyran-2-yl)-1H-pyrazole-5-carboxamide), are re-added to the recording solution prior to measurement. […] Apical amiloride is used to inhibit the endogenous ENaC currents while forskolin is applied on both apical and basolateral side to stimulate CFTR. Measurements are done during a 20 minute timeframe with recordings every 2 minutes. The increase in Ieq is used as a measure for the increased CFTR activity, EC50 values can be generated by measuring impact of different concentrations of compound on Ieq on primary cells, for this purpose each transwell is treated with a different compound concentration. […] Raw data were normalized to percentage activity values using the equation: 100×(Sample−Negative control)/(Positive control−Negative Control).

[3] = chronic TECC, Ieq = calculations based on the maximum current, read-out: EC50 (nM) (Ieq*)
[4] = chronic TECC, Ieq = calculations based on the maximum current
[5] = chronic TECC, AUC = full area under the curve upon forskolin stimulation
[6] = chronic TECC, AUC = full area under the curve upon forskolin stimulation, read-out: EC50 (nM) (AUC**)

SMILES	% Activation (ΔF508-CFTR [1]) [%]	EC50 (ΔF508-CFTR [1]) [nM]	% Activation (ΔF508-CFTR [2]) [%]	EC50 (ΔF508-CFTR [2]) [nM]	EC50 (CFTR ΔF508; [6]) [nM]	% Activity at 1 μM (AUC**) (CFTR ΔF508; [5]) [%]	further results
CCS(=O)(=O)NC(=O)c1cc(-c2cnc(N(C)C)nc2)c2c(C(C)C)nn(-c3cccc(N4CCOCC4)c3)c2n1 [Compound 30, 4-[2-(dimethylamino)pyrimidin-5-yl]-N-(ethanesulfonyl)-1-[3-(morpholin-4-yl)phenyl]-3-(propan-2-yl)-1H-pyrazolo[3,4-b]pyridine-6-carboxamide]	580.97	215	369.93	436			EC50 (CFTR ΔF508; [3]): < 30 nM; % Activity at 1 μM (Ieq*) (CFTR ΔF508; [4]): 450%
CC(C)c1nn(-c2ccccc2)c2nc(C(=O)NS(C)(=O)=O)cc(-c3ccc(N4CCOCC4)nc3)c12 [Compound 34, N-(methanesulfonyl)-4-[6-(morpholin-4-yl)pyridin-3-yl]-1-phenyl-3-(propan-2-yl)-1H-pyrazolo[3,4-b]pyridine-6-carboxamide]	462.55	356	292.95	611			EC50 (CFTR ΔF508; [3]): < 30 nM; % Activity at 1 μM (Ieq*) (CFTR ΔF508; [4]): 270%
CS(=O)(=O)NC(=O)c1cc(N2CCC(N3CCOCC3)CC2)c2c(C3CCC3)nn(-c3ccccc3)c2n1 [Compound 328, 3-cyclobutyl-N-(methanesulfonyl)-4-[4-(morpholin-4-yl)piperidin-1-yl]-1-phenyl-1H-pyrazolo[3,4-b]pyridine-6-carboxamide]							EC50 (CFTR ΔF508): 96 nM
CN(C)S(=O)(=O)NC(=O)c1cc(OCC2CCOCC2)c2c(C3CCC3)nn(-c3ccccc3)c2n1 [Compound 334, 3-cyclobutyl-N-(dimethylsulfamoyl)-4-[(oxan-4-yl)methoxy]-1-phenyl-1H-pyrazolo[3,4-b]pyridine-6-carboxamide]			121.75	167			% Activity at 3 μM (AUC**) (CFTR ΔF508; [5]): 345.13%
COC1CCN(C2CCN(c3cc(C(=O)NS(=O)(=O)N(C)C)nc4c3c(C3CCC3)nn4-c3ccc(F)cc3)CC2)CC1 [Compound 381, 3-cyclobutyl-N-(dimethylsulfamoyl)-1-(4-fluorophenyl)-4-(4-methoxy[1,4'-bipiperidin]-1'-yl)-1H-pyrazolo[3,4-b]pyridine-6-carboxamide]					4100		% Activity at 3 μM (AUC**) (CFTR ΔF508; [5]): 441%
CN(C)S(=O)(=O)NC(=O)c1cc(N2CCC(N3CCOCC3)CC2)c2c(C3CCC3)nn(-c3ccc(F)cc3)c2n1 [Compound 408, 3-cyclobutyl-N-(dimethylsulfamoyl)-1-(4-fluorophenyl)-4-[4-(morpholin-4-yl)piperidin-1-yl]-1H-pyrazolo[3,4-b]pyridine-6-carboxamide]					21	430	
CS(=O)(=O)NC(=O)c1cc(N2CCC(N3CCOCC3)CC2)c2c(C3CCC3)nn(-c3ccc(F)cc3)c2n1 [Compound 421, 3-cyclobutyl-1-(4-fluorophenyl)-N-(methanesulfonyl)-4-[4-(morpholin-4-yl)piperidin-1-yl]-1H-pyrazolo[3,4-b]pyridine-6-carboxamide]					45.6	193.3333	
COCCN1CCN(c2ccc(-c3cc(C(=O)NS(=O)(=O)N(C)C)nc4c3c(C3CCC3)nn4C3CCCCC3)cn2)CC1 [Compound 552, 3-cyclobutyl-1-cyclohexyl-N-(dimethylsulfamoyl)-4-{6-[4-(2-methoxyethyl)piperazin-1-yl]pyridin-3-yl}-1H-pyrazolo[3,4-b]pyridine-6-carboxamide]	364.2	130				235.2857	
CC(C)Oc1nn(C2CCCCC2)c2nc(C(=O)NS(=O)(=O)N(C)C)cc(-c3ccc(N4CCN(C5CC5)CC4)cc3)c12 [Compound 559, 1-cyclohexyl-4-[4-(4-cyclopropylpiperazin-1-yl)phenyl]-N-(dimethylsulfamoyl)-3-[(propan-2-yl)oxy]-1H-pyrazolo[3,4-b]pyridine-6-carboxamide]	291.03	154				231.6378	
